Measured values from patent US9079893B2, “Ureido-pyrazole derivatives for use in the treatment of respiratory syncitial virus (RSV) infection” (Respivert, Ltd., priority 2010, dated 2015).
Where two headings read alike, the source gives them in different places.

Legend:
[1] = tested on: RSV F-protein expression in NHBEC; assay: RSV F-protein expression in NHBEC infected with RSV A2 (in vitro RSV virus load); type: cell-based, respiratory syncitial virus (RSV A2); conditions: for NHBEC E-max (%): test conc μg/mL: 0.0016-0.2 (Examples 1, 59), 0.04-0.2 (fluticasone propionate), 10 (ribavirin); for inhibition at 0.04 µg/mL / IC50: human respiratory syncytial virus, 96 h; for inhibition at 0.04 µg/mL: read-out: % inhibition (at 0.04 μg/mL)
Procedure: (§1) Normal human bronchial epithelial cells (NHBEC) grown in 96 well plates, were infected at a multiplicity of infection (MOI) of 0.001 with RSV A2 (Strain A2, HPA, Salisbury, UK;) in LHC8 Media: RPMI-1640 (50:50) containing 15 mM magnesium chloride, and incubated for 1 hr at 37° C. to promote adsorption. The cells were then washed with PBS to remove non-infected virus particle and incubated for 4 days in fresh media. As appropriate, cells were pre-incubated with the test compound or DMSO for 2 hr, and then added again after wash with PBS as shown above.
(§2) The cells were fixed with 4% formaldehyde in PBS solution for 20 min, washed with washing buffer: PBS including 0.5% BSA and 0.05% Tween-20) (WB) and incubated with blocking solution (5% condensed milk in PBS) for 1 hr. Cells were then washed with WB and incubated for 1 hr at RT with anti-RSV (2F7) F-fusion protein antibody (mouse monoclonal) (lot 798760, Cat. No. ab43812, Abcam). After washing, cells were incubated with an HRP-conjugated secondary antibody (lot 00053170, Cat. No. P0447, Dako) and then TMB substrate (substrate reagent pack (lot 269472, Cat. No. DY999, R&D Systems, Inc.) was added.
(§3) The reaction was stopped by the addition of 2NH2SO4 (50 μL) and the resultant signal was determined colorimetrically (OD: 450 nm with a reference wavelength of 655 nm) in a microplate reader (Varioskan® Flash, ThermoFisher Scientific). Cells were then washed and a 2.5% crystal violet solution (lot 8656, Cat. No. PL7000, Pro-Lab Diagnostics) was applied for 30 mins. After washing with WB, 100 μL of 1% SDS was added to each well, and plates were shaken lightly on the shaker for 1 hr prior to reading the absorbance at 595 nm. The measured OD450-655 readings were corrected to the cell number by dividing the OD450-655 by the OD595 readings. The percentage inhibition for each well was calculated and the IC50 value was calculated from the concentration-response curve generated by the serial dilutions of compound.

[2] = tested on: RSV F-protein expression in CF-BEC; assay: RSV F-protein expression in CF-BEC (HBECs from patients with cystic fibrosis) infected with RSV; type: cell-based, respiratory syncitial virus (RSV A2); conditions: for CF-BEC E-max (%): test conc μg/mL: 0.0016-0.2 (Examples 1, 59), 0.04-0.2 (fluticasone propionate), 10 (ribavirin); for IC50: human respiratory syncytial virus, 96 h, read-out: CF-BEC IC50 (nM)
Procedure: as §1, §2, §3
(§4) HBECs obtained from patients with cystic fibrosis (CF-BEC) and Hep2 cells (human larynx epidermoid carcinoma cell line) were also used.

[3] = tested on: RSV F-protein expression in Hep2 cells; assay: RSV F-protein expression in Hep2 cells infected with RSV; type: cell-based, respiratory syncitial virus (RSV A2); conditions: for Hep2 E-max (%): Hep2 cells, test conc μg/mL: 0.0016-0.2 (Examples 1, 59), 0.04-0.2 (fluticasone propionate), 10 (ribavirin); for IC50: human respiratory syncytial virus, HEp-2, 96 h
Procedure: as §1, §2, §3, §4

human RSV A2 = assay: RSV virus load in mouse lung; type: in vivo, Balb/c mice; conditions: for Lung virus load (TCID50/g lung tissue ×10^3), day 3: 3 days post RSV infection; for Lung virus load (TCID50/g lung tissue ×10^3), day 5: 5 days post RSV infection; for Lung virus load (TCID50/g lung tissue ×10^3), day 7: 7 days post RSV infection; for inhibition of lung viral load: Day 5 post-infection (peak of virus titre), versus vehicle-dosed animals; for augmentation of viral load at Day 9: Day 9, when virus had been eliminated in vehicle-treated mice
Procedure: Wild type, specific pathogen-free male Balb/c mice aged 8 weeks and weighing approximately 25 g were obtained from the Animal Resource Centre Pty. Ltd., Australia. On day zero, appropriate animal groups were anaesthetised with the inhalation anaesthetic methoxyfluorane and nasally inoculated with either virus diluent (low protein serum free VPSSM from Invitrogen) or 10^6 TCID50 units of human RSV A2 in a volume of 50 μL. […] Eleven to thirteen animals from each group were sacrificed on days 3, 5, 7 and 9 to enable lung viral load to be determined using a plaque assay (Table 5).

RSV Memphis 37 = assay: RSV titre assay (CPE in Hep2) of air-liquid interface cultured primary nasal epithelial cells; type: cell-based, respiratory syncitial virus (RSV Memphis 37); conditions: primary 3D cultured nasal epithelial cells, RSV Memphis 37, log [TCID50], FIG. 2
Procedure: Primary nasal epithelial cells, cultured using an air-liquid interface, were purchased from Epithelix Sarl (Geneva, Switzerland). Fresh, warmed media (200 μL) containing either the test compound at the selected concentration or vehicle (DMSO; final concentration of 0.5%) was transferred to the apical chamber, and fresh, warmed media (700 μL) containing either the test compound at the selected concentration or vehicle (DMSO; final concentration of 0.5%) were transferred to the bottom chamber. After incubation for 2 hr, the media in upper well was removed carefully. The following day, fresh, warmed media (200 μL) containing either the test compound at the selected concentration or vehicle (DMSO; final concentration of 0.5%) was transferred to the apical chamber again, and after incubation for 2 hr, the media was removed. On the third day, cells were treated again for 2 hr, and the media was removed. […]
The virus titre was estimated by CPE assay in Hep2 cells as follows: Supernatant (20 μL) was collected and 10-fold serial dilutions were prepared in 5%-FBS DMEM. […] The resultant cytopathic effects (CPE) were assessed by visual inspection 3 days after infection. The amount of virus required to infect 50% of Hep2 cells was calculated for each treatment and is reported as log [TCID50] […]

[4] = tested on: RSV Memphis 37 induced IL-8 release; assay: RSV Memphis 37 induced IL-8 release in air-liquid interface cultured primary nasal epithelial cells; type: cell-based; conditions: primary 3D cultured nasal epithelial cells, RSV Memphis 37, FIG. 1
Procedure: Primary nasal epithelial cells, cultured using an air-liquid interface, were purchased from Epithelix Sarl (Geneva, Switzerland). Fresh, warmed media (200 μL) containing either the test compound at the selected concentration or vehicle (DMSO; final concentration of 0.5%) was transferred to the apical chamber, and fresh, warmed media (700 μL) containing either the test compound at the selected concentration or vehicle (DMSO; final concentration of 0.5%) were transferred to the bottom chamber. After incubation for 2 hr, the media in upper well was removed carefully. The following day, fresh, warmed media (200 μL) containing either the test compound at the selected concentration or vehicle (DMSO; final concentration of 0.5%) was transferred to the apical chamber again, and after incubation for 2 hr, the media was removed. On the third day, cells were treated again for 2 hr, and the media was removed.
The cells in the apical well were infected with 50 μL of RSV Memphis 37 virus (Meridian) 2 (producing an MOI of approximately 0.1 at the estimated cell number of 1×10^6/well) and incubated for 1 hr. The apical media was then removed by aspiration and the wells were washed twice with warmed PBS. The plate was incubated at 37° C. […]
IL-8 concentrations were determined using a Duoset ELISA development kit (R&D Systems, Minneapolis, Minn.; FIG. 1)

[5] = intra-tracheal 20 μL of 0.1 mg/mL, mean ± SEM

CCC(=O)O[C@]1(C(=O)SCF)[C@H](C)C[C@H]2[C@@H]3C[C@H](F)C4=CC(=O)C=C[C@]4(C)[C@@]3(F)[C@@H](O)C[C@@]21C [Fluticasone propionate, reference compound]
NHBEC E-max (%) [1]: −38% | CF-BEC E-max (%) [2]: 10%

Cc1ccc(-n2nc(C(C)(C)C)cc2NC(=O)Nc2ccc(Oc3ccnc(NC(=O)N4CCCC4)c3)c3ccccc23)cc1 [Example 65, N-(4-(4-(3-(3-tert-Butyl-1-p-tolyl-1H-pyrazol-5-yl)ureido)naphthalen-1-yloxy)pyridin-2-yl)pyrrolidine-1-carboxamide]
inhibition at 0.04 µg/mL [1]: 56.5%

NC(=O)c1ncn([C@@H]2O[C@H](CO)[C@@H](O)[C@H]2O)n1 [Ribavirin, reference compound]
NHBEC E-max (%) [1]: 78% | Hep2 E-max (%) [3]: 93% | IC50 ([3]; read-out: Hep2 IC50 (footnote a: μM)): 9 µM | CF-BEC E-max (%) [2]: 53%

COCC(=O)Nc1cc(Oc2ccc(NC(=O)Nc3cc(C(C)(C)C)nn3-c3ccc(C)cc3)c3ccccc23)ccn1 [Example 59, N-(4-(4-(3-(3-tert-Butyl-1-p-tolyl-1H-pyrazol-5-yl)ureido)naphthalen-1-yloxy)pyridin-2-yl)-2-methoxyacetamide]
NHBEC E-max (%) [1]: 78% | inhibition at 0.04 µg/mL [1]: 67.5% | Lung virus load (TCID50/g lung tissue ×10^3), day 3 (human RSV A2; [5]): 81 ±29 TCID50/g lung tissue ×10^3 | Lung virus load (TCID50/g lung tissue ×10^3), day 5 (human RSV A2; [5]): 448 ± 268 TCID50/g lung tissue ×10^3 | Lung virus load (TCID50/g lung tissue ×10^3), day 7 (human RSV A2; [5]): 2.4 ± 0.8 TCID50/g lung tissue ×10^3 | Lung virus load (TCID50/g lung tissue ×10^3), day 9 (human RSV A2; 9 days post RSV infection, intra-tracheal 20 μL of 0.1 mg/mL, mean ± SEM): 0.3 ± 0.1 TCID50/g lung tissue ×10^3 | inhibition of lung viral load (human RSV A2): 90% | augmentation of viral load at Day 9 (human RSV A2): did not augment viral load | Hep2 E-max (%) [3]: 58% | IC50 ([3]; read-out: Hep2 IC50 (nM)): 0.289 µM | CF-BEC E-max (%) [2]: 87% | IC50 [2]: 58 nM

CNC(=O)Nc1cc(Oc2ccc(NC(=O)Nc3cc(C(C)(C)C)nn3-c3ccc(C)cc3)c3ccccc23)ccn1 [Example 88]
inhibition at 0.04 µg/mL [1]: 71.7%

COCC(=O)Nc1cc(COc2ccc(NC(=O)Nc3cc(C(C)(C)C)nn3-c3ccc(C)cc3)c3ccccc23)ccn1 [Example 1, N-(4-((4-(3-(3-tert-Butyl-1-p-tolyl-1H-pyrazol-5-yl)ureido)naphthalen-1-yloxy)methyl)pyridin-2-yl)-2-methoxy acetamide]
NHBEC E-max (%) [1]: 51% | IC50 [1]: 40.8 nM | inhibition at 0.04 µg/mL [1]: 46.8% | IC50 ([1]; read-out: NHBEC IC50 (nM)): 41 nM | Lung virus load (TCID50/g lung tissue ×10^3), day 3 (human RSV A2; [5]): 66 ± 18 TCID50/g lung tissue ×10^3 | Lung virus load (TCID50/g lung tissue ×10^3), day 5 (human RSV A2; [5]): 1,545 ± 918^ TCID50/g lung tissue ×10^3 | Lung virus load (TCID50/g lung tissue ×10^3), day 7 (human RSV A2; [5]): 7.1 ± 5.2 TCID50/g lung tissue ×10^3 | inhibition of lung viral load (human RSV A2): 67% | augmentation of viral load at Day 9 (human RSV A2): did not augment viral load | inhibition on RSV viral load (RSV Memphis 37): strong inhibition | inhibition on RSV-induced IL-8 production [4]: strong inhibition | Hep2 E-max (%) [3]: 24% | CF-BEC E-max (%) [2]: 84% | IC50 [2]: 69 nM

Cc1ccc(-n2nc(C(C)(C)C)cc2NC(=O)Nc2ccc(OCCc3ccnc(NC(N)=O)c3)c3ccccc23)cc1 [Example 40, 4-(2-(4-(3-(3-tert-Butyl-1-p-tolyl-1H-pyrazol-5-yl)ureido)naphthalen-1-yloxy)ethyl)-3-(pyridin-2-yl)urea]
IC50 [1]: 103 nM | inhibition at 0.04 µg/mL [1]: 24.9%
